Patent US12338203B2 (TAISHO PHARMACEUTICAL CO., LTD., priority 2019, dated 2025)

Biological target: T1, human LPAR1 (Homo sapiens, UniProt Q92633)
T1 construct: expressed in transfected cells
Assay: Test Example 1: antagonism against response of LPA-induced increase in intracellular Ca2+ concentration in RH7777 cells stably expressing human LPAR1
Assay type: cell-based
Details: RH7777 cells stably expressing human LPAR1; Fluo-4 fluorescence, FDSS6000; read-out: IC50 value (concentration producing 50% antagonism against response of LPA-induced increase in intracellular Ca2+ concentration) (converted)
Summary of the method: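 RH7777 cells stably transfected with human LPAR1 were preincubated with test compound 30 min at 37 °C in HBSS/20 mM HEPES/probenecid/0.05% BSA buffer, pH 7.4, then LPA-stimulated.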

T1 sequence (Q92633 whole entry): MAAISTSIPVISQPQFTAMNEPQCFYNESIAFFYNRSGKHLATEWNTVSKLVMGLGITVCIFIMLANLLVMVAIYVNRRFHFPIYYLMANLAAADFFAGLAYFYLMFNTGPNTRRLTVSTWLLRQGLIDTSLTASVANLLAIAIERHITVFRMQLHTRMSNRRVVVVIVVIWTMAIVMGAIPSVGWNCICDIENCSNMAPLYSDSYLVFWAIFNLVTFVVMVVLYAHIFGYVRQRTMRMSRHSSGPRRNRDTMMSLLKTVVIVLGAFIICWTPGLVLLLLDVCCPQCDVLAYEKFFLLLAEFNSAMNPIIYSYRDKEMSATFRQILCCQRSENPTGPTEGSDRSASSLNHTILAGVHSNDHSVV

Row | IC50 [nM] | SMILES
1 | 0.853 | CCOc1cc(C(C)N(CCOCc2ccccc2)C(=O)NC2(C(=O)O)CC(OC)C2)c(Cl)c(OCC)c1C1CC1 (stereo not drawn) [Example 5-206]
2 | 1.04 | CCOc1cc(C(C)N(CCOCc2ccccc2)C(=O)NC2(C(=O)O)CC(F)(F)C2)c(Cl)c(OCC)c1C1CC1 (stereo not drawn) [Example 5-197]
3 | 3.92 | CCOc1cc([C@@H](C)N(CCCCc2ccccc2)C(=O)N[C@H]2COC[C@H]2C(=O)O)cc(OCC)c1C(C)=O [Example 1-162]
4 | 5640 | CCOc1cc(C(C)N(CCCCc2ccccc2)C(=O)NC2(C(=O)O)CC(F)(F)C2)cc(OCC)c1C(=O)O (stereo not drawn) [Example 1-39]
5 | 74.5 | COc1cc(C(CO)N(CCCCc2ccccc2)C(=O)NC2(C(=O)O)CCCC2)cc(OC)c1C (stereo not drawn) [Example 3-7]
6 | 8.85 | CCOc1c(C(C)=O)ccc([C@@H](C)N(CCCC(F)(F)c2ccccc2)C(=O)N[C@]2(C(=O)O)C[C@H](OC)C2)c1C [Example 4-68]
7 | 0.997 | CCOc1cc([C@@H](C)N(CCCCc2ccccc2)C(=O)NC2(C(=O)O)CCOCC2)cc(OCC)c1C1CC1 [Example 1-155]
8 | 47.4 | CCOc1cc([C@@H](C)N(CCO[C@@H](C)c2ccccc2)C(=O)NC2(C(=O)O)CCOCC2)cc(OCC)c1C(C)O (single isomer, unassigned) [Example 4-143]
9 | 3.82 | CCOc1cc([C@@H](C)N(CCO[C@@H](C)c2ccccc2)C(=O)NC2(C(=O)O)CC(OC)C2)c(Cl)c(OCC)c1C(C)O (single isomer, unassigned) [Example 5-58]
10 | 49.2 | CCOc1cc([C@@H](C)N(CCCCc2ccccc2)C(=O)NC2CCC(C(=O)O)C2)cc(OCC)c1C (stereo partly drawn) [Example 1-142]
11 | 42.9 | CCOc1cc([C@@H](C)N(CCCCc2ccccc2)C(=O)NC2CCC(C(=O)O)C2)cc(OCC)c1C(C)=O (stereo partly drawn) [Example 1-141]
12 | 1.62 | CCOc1cc([C@@H](C)N(CCOCc2ccccc2)C(=O)N[C@]2(C(=O)O)C[C@@H](OC)C2)c(Cl)c(OCC)c1C(C)=O [Example 5-36]
13 | 5.08 | CCOc1cc(C(C)N(CCCCc2ccccc2)C(=O)NC2(c3nn[nH]n3)CC(OC)C2)cc(OCC)c1C(C)=O (stereo not drawn) [Example 10-14]
14 | 3.61 | CCOc1cc([C@@H](C)N(CCC(F)(F)Cc2ccccc2)C(=O)NC2(C(=O)O)CC(OCC)C2)cc(OCC)c1C1CC1 (stereo partly drawn) [Example 4-94]
15 | 3340 | CCOc1cc(C(C)N(CCO[C@@H](C)c2ccccc2)C(=O)NC2(C(=O)OC(C)(C)C)CC(OCC)C2)c(Cl)c(OCC)c1C(C)=O (stereo partly drawn) [Example 6-15]
16 | 11.6 | CCOc1cc(C(C)N(CCCCc2ccc(F)cc2)C(=O)NC2(C(=O)O)CC(F)(F)C2)cc(OCC)c1C (stereo not drawn) [Example 4-9]
17 | 3.51 | COc1cc(C(C)N(CCO[C@@H](C)c2ccccc2)C(=O)NC2(C(=O)O)CCOCC2)c(C)c(OC)c1C1CC1 (stereo partly drawn) [Example 5-181]
18 | 1.59 | CCOc1cc([C@@H](C)N(CCOCc2ccccc2)C(=O)NC2(C(=O)O)CC(OCC)C2)cc(OCC)c1C(C)=O (stereo partly drawn) [Example 4-109]
19 | 148 | CCOc1cc([C@@H](C)N(CCc2ccc(OC)cc2)C(=O)NC2(C(=O)O)CC(F)(F)C2)cc(OCC)c1C [Example 4-20]
20 | 173 | CCOc1cc([C@@H](C)N(CCCCc2ccccc2)C(=O)NC2(C(=O)O)CCOCC2)cc(OCC)c1C1(O)CC1 [Example 1-153]
21 | 128 | CC(=O)c1ccc(C(C)N(CCCCc2ccccc2)C(=O)NC2(C(=O)O)CC(F)(F)C2)cc1 (stereo not drawn) [Example 5-4]
22 | 1.04 | CCOc1cc([C@@H](C)N(CCOCc2ccccc2)C(=O)NC2(C(=O)O)CC(F)(F)C2)c(Cl)c(OCC)c1C(C)O (single isomer, unassigned) [Example 5-56]
23 | 0.919 | CCOc1cc(C(C)N(CCOCc2ccccc2)C(=O)NC2(C(=O)O)CC2)c(Cl)c(OCC)c1C1CC1 (stereo not drawn) [Example 5-185]

Row | IC50 [nM] | SMILES
24 | 1.36 | CCOc1cc(C(C)N(CCOC(C)c2ccccc2)C(=O)NC2(C(=O)O)CC(OC)C2)c(Cl)c(OCC)c1C1CC1 (stereo not drawn) [Example 5-207]
25 | 4.08 | CCOc1cc([C@@H](C)N(CCO[C@@H](C)c2ccccc2)C(=O)NC2(C(=O)O)CC(OC)C2)c(Cl)c(OCC)c1C(C)O (single isomer, unassigned) [Example 5-57]
26 | 43.1 | COc1cc(C(C)N(CCCCc2ccccc2)C(=O)NC2(C(=O)O)CC(F)(F)C2)nc(OC)n1 (stereo not drawn) [Example 5-88]
27 | 37.4 | CCOc1cc([C@@H](C)N(CCC(F)(F)Cc2ccccc2)C(=O)NC2(C(=O)O)CCOCC2)cc(OCC)c1C(C)=O [Example 4-95]
28 | 6.1 | CCCc1cc(OCC)cc(C(C)N(CCCCc2ccccc2)C(=O)NC2(C(=O)O)CC(F)(F)C2)c1 (stereo not drawn) [Example 5-15]
29 | 3.4 | CCOc1cc([C@@H](C)N(CCO[C@H](C)c2ccccc2)C(=O)NC2(C(=O)O)CC(F)(F)C2)cc(OCC)c1C(C)=O [Example 4-149]
30 | 2.56 | CCOc1cc([C@@H](C)N(CCCCc2ccccc2)C(=O)NC2(C(=O)O)CN(C(C)=O)C2)cc(OCC)c1C [Example 1-159, 1-Acetyl-3-({[(1R)-1-(3,5-Diethoxy-4-Methylphenyl)Ethyl](4-Phenylbutyl) Carbamoyl}Amino) Azetidine-3-Carboxylic Acid]
31 | 1.45 | CCOc1cc(C(C)N(CCOCc2ccccc2)C(=O)NC2(C(=O)O)CCC2)c(C)c(OCC)c1C(C)=O (stereo not drawn) [Example 5-191]
32 | 2.38 | CCOc1cc(C(C)N(CCOC(C)c2ccccc2)C(=O)NC2(c3nn[nH]n3)CC(OC)C2)cc(OCC)c1C1CC1 (stereo not drawn) [Example 10-15]
33 | 2 | CCOc1cc(C(C)N(CCOCc2ccccc2)C(=O)NC2(C(=O)O)CCC2)c(C)c(OCC)c1C (stereo not drawn) [Example 5-193]
34 | 62.7 | COc1cc(C(CO)N(CCCCc2ccccc2)C(=O)NC2(C(=O)O)Cc3ccccc3C2)cc(OC)c1C (stereo not drawn) [Example 3-9]
35 | 1.55 | CCOc1cc([C@@H](C)N(CCO[C@H](C)c2ccccc2)C(=O)NC2(C(=O)O)CC(F)(F)C2)cc(OCC)c1C1CC1 [Example 4-150]
36 | 23.1 | CCOc1cc(C(C)N(CCCCc2ccccc2)C(=O)NC2(C(=O)O)CC(F)(F)C2)cc2c1CCO2 (stereo not drawn) [Example 5-92]
37 | 7.43 | Cc1c(OC2CC2)cc(C(C)N(CCCCc2ccccc2)C(=O)NC2(C(=O)O)CC(F)(F)C2)cc1OC1CC1 (stereo not drawn) [Example 1-73]
38 | 1.33 | CCOc1cc([C@@H](C)N(CCCC(F)(F)c2ccccc2)C(=O)NC2(C(=O)O)CC(F)(F)C2)cc(OCC)c1C(C)=O [Example 4-56]
39 | 8 | CCOc1cc([C@@H](C)N(CCCCc2ccccc2)C(=O)NC2(C(=O)O)CCOC2)cc(OCC)c1C (stereo partly drawn) [Example 1-150]
40 | 26.1 | CCO[C@H]1C[C@@](NC(=O)N(CCO[C@@H](C)c2ccccc2)C(C)c2cc(OC)c(C(C)=O)c(OC)c2)(C(=O)O)C1 (stereo partly drawn) [Example 5-126]
41 | 435 | CCOc1cc(C(C)N(CCO[C@@H](C)c2ccccc2)C(=O)NC2(C(=O)OC)CC(F)(F)C2)cc(OCC)c1C(C)=O (stereo partly drawn) [Example 6-6]
42 | 2.15 | CCOc1cc(C(C)N(CCOC(C)c2ccccc2)C(=O)NC2(C(=O)O)CCC2)c(C)c(OCC)c1C (stereo not drawn) [Example 5-194]
43 | 1.62 | CCOc1cc(C(C)N(CCO[C@@H](C)c2ccccc2)C(=O)NC2(C(=O)O)CC(OC)C2)c(Cl)c(OCC)c1C1CC1 (stereo partly drawn) [Example 5-202]
44 | 8.25 | CCOc1cc([C@@H](C)N(CCC(F)(F)Cc2ccccc2)C(=O)NC2(C(=O)O)CCOCC2)cc(OCC)c1C1CC1 [Example 4-96]
45 | 10.8 | COc1cc(C(C)N(CCO[C@@H](C)c2ccccc2)C(=O)NC2(C(=O)O)CCC2)c(C)c(OC)c1C (stereo partly drawn) [Example 5-140]
